Measured values reported in patent US11926640B2, “Prodrugs of glutamine analogs” (THE JOHNS HOPKINS UNIVERSITY, priority 2015, dated 2024).
“Also recorded” adds a separate entry of the source. Like-named read-outs stand apart in the source and are kept apart here.

Tests used:
[1] = chemical stability (cyclization to diazo-imine, acidic pH); format: physicochemical
From the text: Chemistry. Scheme 9 outlines the synthesis and characterization of the ester based prodrugs 20 and 3 of DON and their subsequent cyclization to novel diazo-imines 9a-b. The pyroglutamate esters 6a-b (D'Andrea, et al., 2008) were FMOC-protected to afford compounds 18 and 1. Formation of the diazoketones 19 and 2 was accomplished using TMS diazomethane in good yield. Rapid deprotection with piperidine afforded the ester based prodrugs 20 and 3. Unexpectedly […] cyclization was observed even under mild conditions (e.g. stirring in chloroform at room temperature) affording the novel diazo-imines 9a and 9b. It is believed that this is the first example of this functional group being described in the chemical literature.

[2] = 5-day i.v. toxicity comparison of DON and 38 in pigs; format: in vivo
[3] = in vitro metabolic stability in monkey plasma; conditions: for PLASMA STABILITY Monkey: prodrug remaining within the 60 min incubation time
[4] = in vitro liver microsomal stability, pig; conditions: pig microsomes
[5] = in vitro metabolic stability in human plasma; conditions: for PLASMA STABILITY Human: prodrug remaining within the 60 min incubation time
[6] = in vitro metabolic stability in mouse plasma; conditions: for PLASMA STABILITY Mouse: prodrug remaining within the 60 min incubation time
[7] = in vitro liver microsomal stability, human; conditions: human microsomes
[8] = in vitro metabolic stability in dog plasma; format: in vitro ADME; conditions: 30 min and 60 min
Method: Percentage remaining was calculated in the following manner.

[9] = in vitro metabolic stability in pig plasma; conditions: 30 min and 60 min
colon cancer cells = assay: rechallenge of compound 25 treated mice with colon cancer cells; format: in vivo; conditions: mice previously treated with single agent
EL4 mouse lymphoma = EL4 mouse lymphoma model; conditions: in vivo
CT26 colon cancer = assay: CT26 tumor model; format: in vivo, mice; conditions: single agent
[10] = mouse, in vivo
[11] = pig microsomes
MC38 colon cancer = assay: MC38 tumor model; format: in vivo, mice; conditions: single agent
[12] = human microsomes
[13] = mouse, in vivo; remark: listed apart in the source
4T1 tumor cells = assay: 4T1 breast cancer model; format: in vivo, BALB/c mice; conditions: single agent, about 1 mg/kg daily
Method: 4T1 tumor cells (0.1 million) were injected into the mammary fat pads of 8-week-old female BALB/c mice. Mice received vehicle (PBS) or 1 mg/kg compound 25 daily from day 5 to day 22. Photos were taken on day 30 after tumor inoculation (FIG. 57A). Tumor volume was measured 2-3 times weekly until WT mice were sacrificed (when size reached to 20 mm length or necrosis occurred). Day 0: 100K 4T1 cells s.c. in 4th mammary pad. Day 5-22: Daily compound 25.
4T1-Luc tumor cells (0.1 million) were injected into the mammary fat pads of 8-week-old female BALB/c mice. Mice received vehicle (PBS) or 1 mg/kg compound 25 daily from day 7. Anti-PD1 (5 mg/Kg) was administered on day 5, 8, and 12. Mice carrying 4T1-luc tumors are injected with Luciferin to measure luminescence from the tumor. IVIS imaging were taken on day 13.
4T1-Luc tumor cells (0.1 million) were injected into the mammary fat pads of 8-week-old female BALB/c mice. Mice received vehicle (PBS) or 1 mg/kg compound 25 daily from day 7 to day 16. Anti-PD1 (5 mg/Kg) was administered on day 5, 8, 12 and 17. Tumor volume was measured 2-3 times weekly until tumors were evaluated for tumor infiltrating cells on day 21. Tumor weights were measured on day 21. On day 21, the PD1 group tumor size looks like it was reduced, however, the result was not due to a tumor size reduction, but rather because one of the large tumor mice died.

[14] = Cmax, tumor to gut ratio and GI toxicity of 25 vs DON at equimolar doses in mice; conditions: 0.8 mg/kg (equivalent) daily for 5 days
[15] = plasma and CSF pharmacokinetics of DON in swine after i.v. infusion; format: in vivo, Göttingen×Yucutan miniature swine; conditions: 60 min post-administration
Method: Compound: Compound 47 was dissolved in a sterile saline containing 5% ethanol and 5% Tween 80 on the date of administration.
Swine: Swine studies were conducted under a protocol approved by the Johns Hopkins Animal Care and Use Committee. Adult, female Göttingen×Yucutan miniature swine (Massachusetts General Hospital, MA) were housed in Johns Hopkins University facilities accredited by the Association for Assessment and Accreditation of Laboratory Animal Care International in compliance with the Animal Welfare Act, Animal Welfare Regulations, and the Public Health Service Policy on the Humane Care and Use of Laboratory Animals. Animals were maintained on a 14-h light and 10-h dark schedule, provided ad libitum water and a commercial miniswine diet (Teklad, Madison, WI) with environmental enrichment (fruit/vegetables) twice daily.

U87 human glioma cells = assay: U87 flank xenograft mouse model of GBM; format: in vivo
Method: Mice Efficacy Studies. All mouse efficacy studies were conducted according to protocol #MO13M69 approved by the Animal Care and Use Committee at Johns Hopkins University. Female athymic (RH-Foxn1nu mice) mice between 25 and 30 g were obtained (Harlan Sprague Dawley Inc. Indianapolis. Indiana), and maintained on a 12 hour light-dark cycle with ad libitum access to food and water. U87 human glioma cells were injected s.c. (5×10^6 cells in […] of PBS) in four separate locations on the flanks of each mouse. When tumors grew to a mean volume of around 200 mm^3, mice were randomized into either vehicle (HEPES-buffered saline, i.p.) or DON (1; 0.8 mg/kg, i.p.). In one cohort, mice were administered a single dose of the appropriate solution two hours after which glutamine levels were quantified in the tumor as described previously (Le et al., 2012). In brief, tumors were harvested, snap frozen, and homogenized in liquid N, then subjected to metabolite extraction using methanol and DI water. Quantification was performed using Agilent 6520 Quadrupole-Time-of-Flight (Q-TOF) mass spectrometer with Agilent 1290 HPLC and using Agilent Mass Hunter and Agilent Qualitative and Quantitative Analysis Software packages. Glutamine content was averaged by group for each individual tumor (n=3-4/group), depicted as relative intensity, and analyzed by one-tailed t test. In a second cohort, efficacy experiments were conducted. Mice were injected once daily for six days; tumor volumes were measured using digital calipers and calculated according to the formula: [volume=(largest tumor dimension)×(smallest tumor dimension)^2×0.52] at 2, 4, and 6 days after the onset of treatment. Each individual tumor (n=8-10/group) was normalized to its pretreatment volume, averaged and analyzed by repeated measures two-way analysis of variance (ANOVA). If significant, a Bonferroni post hoc test was subsequently applied. Significance was defined as p<0.05.

melanoma = melanoma growth model; conditions: in vivo
[16] = tolerability of daily treatment with DON or 25 in mice

CC(C)OC(=O)[C@@H]1CCC(C=[N+]=[N-])=N1 (stereo in doubt) [Compound 9b, Isopropyl 5-(diazomethyl)-3,4-dihydro-2H-pyrrole-2-carboxylate]
chemical stability (in words) [1]: chemically stable even at acidic pH

CC(C)OC(=O)[C@H](CCC(=O)C=[N+]=[N-])NC(=O)[C@@H](N)Cc1c[nH]c2ccccc12 (stereo in doubt) [Compound 38, Isopropyl 2-(2-amino-3-(1H-indol-3-yl)propanamido)-6-diazo-5-oxohexanoate]
DON delivered to GI tissues (in words) ([2]; at equivalent PBMC exposures): less DON to GI tissues
PLASMA STABILITY Monkey [3]: 10%
liver microsomal stability (in words) [4]: moderate-high stability
PLASMA STABILITY Human [5]: 30%
PLASMA STABILITY Mouse [6]: 0%
liver microsomal stability (in words) [7]: moderate-high stability

CC(C)OC(=O)C(N)CCC(=O)C=[N+]=[N-] (centres unmarked) [Compound 3, Isopropyl 2-amino-6-diazo-5-oxohexanoate]
chemical stability (in words) [1]: chemical instability; also recorded: unstable

CC(C)C[C@H](N)C(=O)N[C@@H](CCC(=O)C=[N+]=[N-])C(=O)OC(C)C [Compound 9, Isopropyl 2-(2-amino-4-methylpentanamido)-6-diazo-5-oxohexanoate]
stability in monkey plasma (in words) ([3]; 30 min and 60 min): unstable
PLASMA STABILITY Monkey [3]: 1%
stability in dog plasma (in words) [8]: unstable
liver microsomal stability (in words) [4]: moderate-high stability
stability in human plasma (in words) ([5]; 30 min and 60 min): unstable
PLASMA STABILITY Human [5]: 1%
stability in mouse plasma (in words) ([6]; 30 min and 60 min): unstable
PLASMA STABILITY Mouse [6]: 0%
liver microsomal stability (in words) [7]: moderate-high stability
stability in pig plasma (in words) [9]: unstable

CCOC(=O)[C@@H]1CCC(C=[N+]=[N-])=N1 [Compound 9a, Ethyl 5-(diazomethyl)-3,4-dihydro-2H-pyrrole-2-carboxylate]
chemical stability (in words) [1]: chemically stable even at acidic pH

CCOC(=O)[C@@H](N)CCC(=O)C=[N+]=[N-] [Compound 20, Ethyl 2-amino-6-diazo-5-oxohexanoate]
chemical stability (in words) [1]: chemical instability; also recorded: unstable

CCOC(=O)[C@H](CCC(=O)C=[N+]=[N-])NC(=O)[C@@H](N)CC(C)C [Compound 25, Ethyl 2-(2-amino-4-methylpentanamido)-6-diazo-5-oxohexanoate]
colon cancer cell proliferation upon rechallenge (in words) (colon cancer cells): prevents colon cancer cell proliferation upon rechallenge
antitumor efficacy against lymphoma (in words) (EL4 mouse lymphoma): cure lymphoma; also recorded: efficacious
antitumor efficacy in CT26 tumor model (in words) (CT26 colon cancer): superior to CB-839; also recorded: robust response and improved overall survival
Cmax vs DON (in words) [10]: reduces Cmax
tumor to gut ratio vs DON (in words) [10]: enhances tumor to gut ratio
liver microsomal stability (in words) [11]: moderate-high stability
antitumor efficacy in MC38 tumor model (in words) (MC38 colon cancer): complete and durable response; also recorded: inhibits colon cell proliferation and extends the survival of mice; also recorded: efficacious; also recorded: more efficacious than oxaliplatin
liver microsomal stability (in words) [12]: moderate-high stability
blood counts (in words) [13]: some leukopenia
body weight (in words) [13]: No weight loss
bone marrow suppression (in words) [13]: no bone marrow suppression
renal and liver function (in words) [13]: unaffected
antitumor efficacy in 4T1 breast cancer model (in words) (4T1 tumor cells): superior to CB-839; also recorded: robust response and improved overall survival; also recorded: inhibited the growth of mammary carcinoma tumor cells; also recorded: inhibits tumor growth
GI toxicity, jejunum-ileum histology (in words) [14]: causes less GI toxicity

CC(C)OC(=O)[C@H](CCC(=O)C=[N+]=[N-])NC(=O)OC(OC(=O)C(C)(C)C)c1ccccc1 (some centres unmarked) [Compound 47, Isopropyl 6-diazo-5-oxo-2-(((phenyl(pivaloyloxy)methoxy)carbonyl)amino) hexanoate]
CSF delivery of DON (in words) [15]: substantially higher amounts of DON to the CSF; also recorded: enhanced CSF delivery of DON
CSF:plasma ratio of DON (in words) [15]: increased CSF-to-plasma ratios; also recorded: enhanced CSF:plasma ratio

CC(=O)N[C@@H](Cc1c[nH]c2ccccc12)C(=O)N[C@@H](CCC(=O)C=[N+]=[N-])C(=O)OC(C)C [Compound 60, Isopropyl 2-(2-acetamido-3-(1H-indol-3-yl)propanamido)-6-diazo-5-oxohexanoate]
liver microsomal stability (in words) [4]: moderate-high stability
antitumor efficacy in MC38 tumor model (in words) (MC38 colon cancer): promoted tumor regression
liver microsomal stability (in words) [7]: moderate-high stability

[N-]=[N+]=CC(=O)CC[C@H](N)C(=O)O [DON, 6-diazo-5-oxo-L-norleucine]
macroscopic stomach toxicity (in words) ([2]; 5 days of dosing): more severe stomach toxicity
adverse clinical signs (in words) ([2]; DON 1.6 mg/kg vs 38 1.5 mg/kg, i.v. 2 h/day for 5 days, equivalent PBMC exposure): more adverse clinical signs; also recorded: more adverse clinical effects
antitumor efficacy against lymphoma (in words) (EL4 mouse lymphoma): cure lymphoma; also recorded: markedly inhibits lymphoma growth; also recorded: efficacious
flank GBM tumor size (in words) (U87 human glioma cells; 0.8 mg/kg, i.p, q.d. days 1-6): dramatic reduction in tumor size
glutamine metabolism in tumor (endogenous glutamine accumulation) (U87 human glioma cells; 0.8 mg/kg, i.p., 2 hours post-administration, flank GBM tumors): inhibited glutamine metabolism
signs of toxicity (in words) (U87 human glioma cells; mice receiving DON 0.8 mg/kg, i.p, q.d.): significant signs of toxicity
effect on melanoma growth (in words) (melanoma): modest effect on inhibiting melanoma growth
blood counts (in words) ([16]; daily high dose treatment): pan-cytopenia
body weight (in words) ([16]; daily high dose treatment): weight loss
renal and liver function (in words) ([16]; high dose): unaffected
GI toxicity, jejunum-ileum histology (in words) [14]: significant inflammation
